Laboratory results: patent US10375956B2, “Herbicidally active 2-(substituted-phenyl)-cyclopentane-1,3-dione compounds and derivatives thereof” (Syngenta Limited, priority 2013, dated 2019)

How the values were obtained:
Assay in all cases: Biological Example 3 glasshouse assay, post-emergence, various adjuvant systems
Type in all cases: in vivo
[1] = system: Digitaria sanguinalis (DIGSA); conditions: 8 g/ha; for percentage control of (phytotoxicity on) Digitaria sanguinalis (DIGSA): adjuvant 0.5% v/v Hexamoll DINCH + 1.0% v/v AMS + 12.5% v/v IPA; for percentage control of Digitaria sanguinalis: adjuvant 0.5% v/v TEHP + 1.0% v/v AMS + 12.5% v/v IPA
Protocol: (§1) Post-emergence foliar spray application, 200 L/ha, usually one or two replicates for the weeds (depending on application rate), and two replicates for soybean.
(§2) Standard warm conditions (tropical), in glasshouse. Specifically, the glasshouse bay conditions are 24° C./18° C. day/night; 16/8 hours light/dark; 65% humidity.
(§3) The herbicidal application takes place at the following growth stages for plants which include inter alia one or more of the following plants (usually the herbicidal application takes place on at least the following plants: DIGSA, ELEIN, SETFA, ZEAMX, GLXMA Nikko, and GLXMA TMG133, and often also either BRADC or BRAPP):
Digitaria sanguinalis (DIGSA)—growth stage 12 or 13
(§4) Each test compound is applied with one of the following adjuvant systems (all percentages are final concentrations in the aqueous spray mixture):
(§5) Adjuvant system 2: 0.5% v/v Hexamoll™ DINCH**, 1.0% v/v AMS (ammonium sulphate) and 12.5% v/v IPA (isopropyl alcohol).
(§6) Adjuvant system 3: 0.5% v/v tris-(2-ethylhexyl)phosphate (“TEHP”), 1.0% v/v AMS (ammonium sulphate) and 12.5% v/v IPA (isopropyl alcohol).
(§7) Seeds of the weed (including volunteer) plants, typically including inter alia Digitaria sanguinalis (DIGSA), Eleusine indica (ELEIN), Setaria faberi (SETFA), Zea mays (ZEAMX, corn), and sometimes also [either Brachiaria decumbens (BRADC) or Brachiaria platyphylla (BRAPP)], are sown in seed trays (troughs) containing clay loam soil (pH 7.0, 2.2% organic matter, “Trough Mix A”); and soybean seed is sown in pots containing the same soil with 3 soybean seedlings per pot. The plants are sprayed with the test herbicide when they reach the growth stages mentioned above.
(§8) The test herbicidal solutions are prepared by mixing the appropriate aliquots of the test substance(s) and one of the adjuvant systems indicated above *** in deionised water to give the desired treatment concentration.
(§9) The herbicidal application is made as a foliar spray, using a tracksprayer. Following the herbicidal application, the plants are watered twice per day for the duration of the test.
(§10) A visual assessment of the % herbicidal damage is made 7 and 14 Days After herbicide Application (DAA) (or, in a minority of cases, 7 and 15 DAA), and the results are recorded as % visual herbicidal damage where 0%=no damage to plants and 100%=plant totally killed.
(§11) Compounds A2 and A7 were tested using the 0.5% v/v Hexamoll™ DINCH™+1.0% v/v AMS+12.5% v/v IPA adjuvant system. Compounds A11, A12, A14, A20 and A21 were tested using the 0.5% v/v tris-(2-ethylhexyl)phosphate (“TEHP”)+1.0% v/v AMS+12.5% v/v IPA adjuvant system.
(§12) The percentages of herbicidal damage/plant control, at 14 Days After herbicide Application (DAA) (or, in some cases, at 15 DAA), for the Compounds tested and for some of the plants tested, were in the following percentage ranges. For the tested compounds, the phytotoxicity results shown herein are generally the average of 2 or 3 repetitions (for the grassy weeds including corn) or the average of 2 repetitions (for soybean for most of the tested compounds). However, for Compound A2 on soybean there was 1 repetion only.

[2] = system: Glycine max (GLXMA, soybean) cultivar TMG133 (Roundup Ready glyphosate-tolerant); conditions: crop
Protocol: as §1, §2, §3
Glycine max (GLXMA, soybean) cultivar “TMG133”—which is Roundup Ready™ glyphosate-tolerant soybean cultivar TMG133 (typically available from Monsanto in Brazil)—growth stage: 1st trifoliate.
as §4, §5, §6, §7, §8, §9, §10, §11, §12
Glycine max (GLXMA, soybean) cultivar “TMG133” is Roundup Ready™ glyphosate-tolerant soybean cultivar TMG133, and is typically available from Monsanto in Brazil.

[3] = system: Glycine max (GLXMA, soybean) cultivar Nikko; conditions: crop
Protocol: as §1, §2, §3
Glycine max (GLXMA, soybean) cultivar “Nikko”—growth stage: 1st trifoliate
as §4, §5, §6, §7, §8, §9, §10, §11, §12

Setaria faberi (SETFA) = conditions: 8 g/ha; for percentage control of (phytotoxicity on) Setaria faberi (SETFA): adjuvant 0.5% v/v Hexamoll DINCH + 1.0% v/v AMS + 12.5% v/v IPA; for percentage control of Setaria faberi: adjuvant 0.5% v/v TEHP + 1.0% v/v AMS + 12.5% v/v IPA
Protocol: as §1, §2, §3
Setaria faberi (SETFA)—growth stage 12 or 13
as §4, §5, §6, §7, §8, §9, §10, §11, §12

Eleusine indica (ELEIN) = conditions: 8 g/ha; for percentage control of (phytotoxicity on) Eleusine indica (ELEIN): adjuvant 0.5% v/v Hexamoll DINCH + 1.0% v/v AMS + 12.5% v/v IPA; for percentage control of Eleusine indica: adjuvant 0.5% v/v TEHP + 1.0% v/v AMS + 12.5% v/v IPA
Protocol: as §1, §2, §3
Eleusine indica (ELEIN)—growth stage 12 or 13
as §4, §5, §6, §7, §8, §9, §10, §11, §12

[4] = system: Zea mays (ZEAMX, maize/corn) cultivar Garland; conditions: 8 g/ha; for percentage control of (phytotoxicity on) Zea mays (ZEAMX, maize, corn): adjuvant 0.5% v/v Hexamoll DINCH + 1.0% v/v AMS + 12.5% v/v IPA; for percentage control of Zea mays: adjuvant 0.5% v/v TEHP + 1.0% v/v AMS + 12.5% v/v IPA
Protocol: as §1, §2, §3
Zea mays (ZEAMX, maize/corn, e.g. can occur as volunteer corn) cultivar “Garland”—growth stage 12 or 13
as §4, §5, §6, §7, §8, §9, §10, §11, §12
Zea mays (ZEAMX, maize, corn) is often present as a “volunteer” weed (“volunteer” corn) in fields where it was planted as a crop in preceding growing season(s) and where the present field crop is not corn.

[5] = system: Brachiaria decumbens (BRADC); conditions: 8 g/ha; for percentage control of (phytotoxicity on) Brachiaria decumbens (BRADC): adjuvant 0.5% v/v Hexamoll DINCH + 1.0% v/v AMS + 12.5% v/v IPA; for percentage control of Brachiaria decumbens (BRADC): adjuvant 0.5% v/v TEHP + 1.0% v/v AMS + 12.5% v/v IPA
Protocol: as §1, §2, §3
Brachiaria decumbens (BRADC)—growth stage (GS) 12 or 13 (or GS 12)—or, if BRADC is not used, then sometimes Brachiaria platyphylla (BRAPP)—growth stage 12 or 13
as §4, §5, §6, §7, §8, §9, §10
Compounds A2 and A7 were tested using the 0.5% v/v Hexamoll™ DINCH™+1.0% v/v AMS+12.5% v/v IPA adjuvant system. Compounds A11, A12, A14, A20 and A21 were tested using the 0.5% v/v tris-(2-ethylhexyl)phosphate (“TEHP”)+1.0% v/v AMS+12.5% v/v IPA adjuvant system. […]

[6] = 120 g/ha, 14 DAA, adjuvant 0.5% v/v Hexamoll DINCH + 1.0% v/v AMS + 12.5% v/v IPA
[7] = 120 g/ha, 14 DAA, adjuvant 0.5% v/v TEHP + 1.0% v/v AMS + 12.5% v/v IPA
[8] = 240 g/ha, 14 or 15 DAA, adjuvant 0.5% v/v TEHP + 1.0% v/v AMS + 12.5% v/v IPA
[9] = 120 g/ha, 15 DAA, adjuvant 0.5% v/v TEHP + 1.0% v/v AMS + 12.5% v/v IPA
[10] = 120 g/ha, 14 or 15 DAA, adjuvant 0.5% v/v TEHP + 1.0% v/v AMS + 12.5% v/v IPA

SMILES: C#CCC1CC(=O)C(c2c(C)cc(-c3ccc(Cl)cn3)cc2C)C1=O (stereo not shown) [Compound A2]
- percentage control of (phytotoxicity on) Digitaria sanguinalis (DIGSA) ([1]; 14 DAA): 90%
- percentage phytotoxicity on Glycine max cultivar TMG133 [2, 6]: 20%
- percentage phytotoxicity on Glycine max cultivar Nikko [3, 6]: 10%
- percentage control of (phytotoxicity on) Setaria faberi (SETFA) (Setaria faberi (SETFA); 14 DAA): 90%
- percentage control of (phytotoxicity on) Eleusine indica (ELEIN) (Eleusine indica (ELEIN); 14 DAA): 85%
- percentage control of (phytotoxicity on) Zea mays (ZEAMX, maize, corn) ([4]; 14 DAA): 10%
- percentage control of (phytotoxicity on) Brachiaria decumbens (BRADC) ([5]; 14 DAA): 50%

SMILES: C#CCC1CC(=O)C(c2c(Cl)cc(-c3ccc(F)cc3)cc2OC)C1=O (stereo not shown) [Compound A7]
- percentage control of (phytotoxicity on) Digitaria sanguinalis (DIGSA) ([1]; 14 DAA): 95%
- percentage phytotoxicity on Glycine max cultivar TMG133 [2, 6]: 0%
- percentage phytotoxicity on Glycine max cultivar Nikko [3, 6]: 2.5%
- percentage control of (phytotoxicity on) Setaria faberi (SETFA) (Setaria faberi (SETFA); 14 DAA): 91.7%
- percentage control of (phytotoxicity on) Eleusine indica (ELEIN) (Eleusine indica (ELEIN); 14 DAA): 91.7%
- percentage control of (phytotoxicity on) Zea mays (ZEAMX, maize, corn) ([4]; 14 DAA): 100%
- percentage control of (phytotoxicity on) Brachiaria decumbens (BRADC) ([5]; 14 DAA): 95%

SMILES: C#CCC1CC(=O)C(c2c(Cl)cc(-c3ccc(Cl)cc3)cc2OC)C1=O (stereo not shown) [Compound A11, 2-[2-chloro-4-(4-chlorophenyl)-6-methoxyphenyl]-4-prop-2-ynylcyclopentane-1,3-dione]
- percentage control of Digitaria sanguinalis ([1]; 14 DAA): 99%
- percentage phytotoxicity on Glycine max cultivar TMG133 [2, 7]: 12.5%
- percentage phytotoxicity on Glycine max cultivar Nikko [3, 7]: 15%
- percentage control of Setaria faberi (Setaria faberi (SETFA); 14 DAA): 98%
- percentage control of Eleusine indica (Eleusine indica (ELEIN); 14 DAA): 95%
- percentage control of Zea mays ([4]; 14 DAA): 100%
- percentage control of Brachiaria decumbens (BRADC) ([5]; 14 DAA): 99%

SMILES: C#CCC1CC(=O)C(c2c(Cl)cc(-c3ccc(F)cc3F)cc2OC)C1=O (stereo not shown) [Compound A12]
- percentage control of Digitaria sanguinalis ([1]; 14 or 15 DAA): 98.5%
- percentage phytotoxicity on Glycine max cultivar TMG133 [2, 8]: 15%
- percentage phytotoxicity on Glycine max cultivar Nikko [3, 8]: 15%
- percentage control of Setaria faberi (Setaria faberi (SETFA); 14 or 15 DAA): 95%
- percentage control of Eleusine indica (Eleusine indica (ELEIN); 14 or 15 DAA): 90%
- percentage control of Zea mays ([4]; 14 or 15 DAA): 100%
- percentage control of Brachiaria decumbens (BRADC) ([5]; 14 or 15 DAA): 99%

SMILES: C#CCC1CC(=O)C(c2c(F)cc(-c3ccc(Cl)cc3)cc2OC)C1=O (stereo not shown) [Compound A14]
- percentage control of Digitaria sanguinalis ([1]; 15 DAA): 85%
- percentage phytotoxicity on Glycine max cultivar TMG133 [2, 9]: 5%
- percentage phytotoxicity on Glycine max cultivar Nikko [3, 9]: 5%
- percentage control of Setaria faberi (Setaria faberi (SETFA); 15 DAA): 95%
- percentage control of Eleusine indica (Eleusine indica (ELEIN); 15 DAA): 20%
- percentage control of Zea mays ([4]; 15 DAA): 90%

SMILES: C#CCC1CC(=O)C(c2c(F)cc(-c3ccc(F)cc3)cc2OC)C1=O (stereo not shown) [Compound A20, 2-[2-fluoro-4-(4-fluorophenyl)-6-methoxyphenyl]-4-prop-2-ynylcyclopentane-1,3-dione]
- percentage control of Digitaria sanguinalis ([1]; 14 or 15 DAA): 75%
- percentage phytotoxicity on Glycine max cultivar TMG133 [2, 10]: 10%
- percentage phytotoxicity on Glycine max cultivar Nikko [3, 10]: 2%
- percentage control of Setaria faberi (Setaria faberi (SETFA); 14 or 15 DAA): 90%
- percentage control of Eleusine indica (Eleusine indica (ELEIN); 14 or 15 DAA): 15%
- percentage control of Zea mays ([4]; 14 or 15 DAA): 90%

SMILES: C#CCC1CC(=O)C(c2c(F)cc(-c3ccc(F)cc3F)cc2OC)C1=O (stereo not shown) [Compound A21]
- percentage control of Digitaria sanguinalis ([1]; 14 or 15 DAA): 45%
- percentage phytotoxicity on Glycine max cultivar TMG133 [2, 10]: 5%
- percentage phytotoxicity on Glycine max cultivar Nikko [3, 10]: 5%
- percentage control of Setaria faberi (Setaria faberi (SETFA); 14 or 15 DAA): 85%
- percentage control of Eleusine indica (Eleusine indica (ELEIN); 14 or 15 DAA): 25%
- percentage control of Zea mays ([4]; 14 or 15 DAA): 95%
